Source: EP1683521A1, “Peptide deformylase inhibitors, their use, and pharmaceutical compositions containing the same” (CENTRE NATIONAL DE LA RECHERCHE SCIENTIFIQUE (CNRS), priority 2005, dated 2006)
≈ marks a conversion by molar mass, not a printed value. Where two headings read alike, the source gives them in different places.

Key:
EcPDF = molecular target: T1, EcPDF (Escherichia coli, UniProt P0A6K3); assay: NMR titrations on peptide deformylase; format: binding; details: probed by NMR titrations
T1 construct: made in house

[1] = system: Arabidopsis thaliana (ecotype WS4); assay: Growth inhibition of Arabidopsis thaliana; format: in vivo
B. subtilis-MHY101 = assay: B. subtilis MIC; details: Bacillus subtilis
B. subtilis-MHD101 = assay: B. subtilis MIC; details: Bacillus subtilis
BsPDF2 = molecular target: T2, BsPDF2 (Geobacillus stearothermophilus, UniProt O31410); assay: PDF inhibition assay coupled to formate dehydrogenase (in vitro assay); format: biochemical, Bacillus stearothermophilus
T2 construct: made in house

EcPDF1B = molecular target: T3, EcPDF1B (Escherichia coli, UniProt P0A6K3); assay: as above; format: biochemical
T3 construct: made in house

AtPDF1A = molecular target: T4, AtPDF1A (Arabidopsis thaliana, UniProt Q9FV53); assay: as above; format: biochemical; details: mitochondrial PDF, 25 nM in assay; 10 % dimethyl sulfoxide; (TB) = tight binding
T4 construct: made in house

B. subtilis-168 = assay: B. subtilis MIC
B. subtilis-M03482 = assay: B. subtilis MIC; details: Bacillus subtilis
E. coli-CAG1284 = assay: E. coli MIC, tolC mutant strain; details: Escherichia coli
E. coli-JM101Tr = assay: E. coli MIC, WT strain; details: Escherichia coli, WT strain JM101Tr
[2] = nickel-bound enzyme, 20 nM in assay, 10 % dimethyl sulfoxide, (TB) = tight binding, read-out: IC50
[3] = nickel-bound enzyme, 40 nM in assay, 10 % dimethyl sulfoxide, (TB) = tight binding, read-out: IC50
[4] = WT context (strains 168 and MO3482)

T4 sequence (Q9FV53 61-269): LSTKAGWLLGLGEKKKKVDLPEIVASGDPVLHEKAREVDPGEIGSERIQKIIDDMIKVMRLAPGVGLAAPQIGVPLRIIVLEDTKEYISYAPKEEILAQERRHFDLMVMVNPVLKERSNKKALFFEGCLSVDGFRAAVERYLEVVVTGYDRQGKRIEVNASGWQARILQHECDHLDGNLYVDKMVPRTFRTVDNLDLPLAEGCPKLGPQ
T3 sequence (P0A6K3 whole entry): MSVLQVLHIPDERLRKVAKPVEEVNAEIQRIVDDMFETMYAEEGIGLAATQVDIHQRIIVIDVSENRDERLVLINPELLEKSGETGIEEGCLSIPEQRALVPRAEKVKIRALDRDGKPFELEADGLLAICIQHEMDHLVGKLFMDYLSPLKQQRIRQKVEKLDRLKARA
T2 sequence (O31410 whole entry): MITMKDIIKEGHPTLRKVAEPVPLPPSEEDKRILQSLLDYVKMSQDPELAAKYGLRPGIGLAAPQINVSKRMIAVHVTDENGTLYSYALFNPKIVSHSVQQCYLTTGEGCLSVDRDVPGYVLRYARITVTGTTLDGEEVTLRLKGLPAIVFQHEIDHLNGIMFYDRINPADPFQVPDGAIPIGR
T1 sequence (P0A6K3 1-148): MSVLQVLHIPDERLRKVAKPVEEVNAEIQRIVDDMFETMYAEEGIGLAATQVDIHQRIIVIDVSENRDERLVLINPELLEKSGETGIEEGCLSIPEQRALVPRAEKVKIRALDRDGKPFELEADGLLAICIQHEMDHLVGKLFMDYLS

SMILES	binding constant (EcPDF)	concentration at which growth inhibition is observed [1]	MIC (B. subtilis-MHY101)	MIC (B. subtilis-MHD101)	IC50 (BsPDF2; [2])	IC50 (EcPDF1B; [3])	IC50 (AtPDF1A)	MIC (B. subtilis-168; Bacillus subtilis)	MIC (B. subtilis-168; strain 168 (WT context))	MIC (B. subtilis-M03482)	MIC (E. coli-CAG1284)	IC50 (BsPDF2)	MIC (E. coli-JM101Tr)	IC50 (EcPDF1B)	MIC (B. subtilis-168; [4])
Brc1ccc2[nH]ccc2c1 [5-bromoindole]	in the millimolar range	–	–	–	–	–	–	–	–	–	–	–	–	–	–
O=C(Cc1cn(C(=O)OCc2ccccc2)c2ccc(Br)cc12)NO [Compound 2, 5-bromo-3-hydroxycarbamoylmethyl-indole-1-carboxylic acid benzyl ester]	–	higher than 50 µM	6 µg/mL (≈ 14.9 µM)	12 µg/mL (≈ 29.8 µM)	< 27 nM	26 nM	14000 nM	20 µg/mL (≈ 49.6 µM)	20 µg/mL (≈ 49.6 µM)	16 µg/mL (≈ 39.7 µM)	–	–	–	–	–
CC(C)(C)OC(=O)NC(CC(=O)NO)Cc1ccccc1 (stereo not shown) [RAS270]	–	–	8 µg/mL (≈ 27.2 µM)	> 300 µg/mL	–	–	83000 nM	> 300 µg/mL	–	> 300 µg/mL	32 µg/mL (≈ 109 µM)	300 nM	> 300 µg/mL	44 nM	no antibiotic properties
CC(C)(C)OC(=O)NC(Cc1ccccc1)CN(O)C=O (stereo not shown) [RAS358]	–	–	9 µg/mL (≈ 30.6 µM)	> 300 µg/mL	400 nM	50 nM	150000 nM	> 300 µg/mL	–	> 300 µg/mL	–	–	–	–	no antibiotic properties
